The values below come from PMC3726451, “Coumestrol from the national cancer Institute’s natural product library is a novel inhibitor of protein kinase CK2” (BMC Pharmacology & Toxicology, 2013).

The target of test [1] is T1, Casein kinase 2 (CK2) (Homo sapiens, UniProt P68400).
T1 construct: gene CSNK2A1
The test is described as follows: ADP-Glo kinase assay, single concentration […], duplicates. The format is biochemical. As to conditions: read-out: % inhibition at 10 μM.

For test [2], the target named is T2, vascular endothelial growth factor receptor 3 (VEGFR3) (Homo sapiens, UniProt P35916).
T2 construct: gene FLT4
The test can be described thus: ADP-Glo kinase selectivity panel, single concentration […] with […] ATP. The format is biochemical.

T1 sequence (P68400 whole entry): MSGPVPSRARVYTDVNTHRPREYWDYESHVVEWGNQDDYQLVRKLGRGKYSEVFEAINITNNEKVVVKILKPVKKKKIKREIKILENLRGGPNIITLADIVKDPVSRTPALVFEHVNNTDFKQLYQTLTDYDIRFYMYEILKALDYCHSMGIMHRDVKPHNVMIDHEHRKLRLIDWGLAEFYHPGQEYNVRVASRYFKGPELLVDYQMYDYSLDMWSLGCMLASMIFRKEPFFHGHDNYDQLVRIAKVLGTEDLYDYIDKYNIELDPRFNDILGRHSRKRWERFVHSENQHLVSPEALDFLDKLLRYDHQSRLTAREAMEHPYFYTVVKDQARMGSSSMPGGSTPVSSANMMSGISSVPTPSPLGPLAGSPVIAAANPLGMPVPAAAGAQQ
T1 sequence (P67870 2-215 partner): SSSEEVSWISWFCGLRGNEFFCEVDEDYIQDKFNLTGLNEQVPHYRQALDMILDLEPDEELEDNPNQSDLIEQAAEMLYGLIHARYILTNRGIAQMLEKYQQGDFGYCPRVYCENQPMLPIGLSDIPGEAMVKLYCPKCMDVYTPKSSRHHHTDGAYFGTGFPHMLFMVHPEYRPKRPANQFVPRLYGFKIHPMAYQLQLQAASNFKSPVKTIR
T2 sequence (P35916 25-1363): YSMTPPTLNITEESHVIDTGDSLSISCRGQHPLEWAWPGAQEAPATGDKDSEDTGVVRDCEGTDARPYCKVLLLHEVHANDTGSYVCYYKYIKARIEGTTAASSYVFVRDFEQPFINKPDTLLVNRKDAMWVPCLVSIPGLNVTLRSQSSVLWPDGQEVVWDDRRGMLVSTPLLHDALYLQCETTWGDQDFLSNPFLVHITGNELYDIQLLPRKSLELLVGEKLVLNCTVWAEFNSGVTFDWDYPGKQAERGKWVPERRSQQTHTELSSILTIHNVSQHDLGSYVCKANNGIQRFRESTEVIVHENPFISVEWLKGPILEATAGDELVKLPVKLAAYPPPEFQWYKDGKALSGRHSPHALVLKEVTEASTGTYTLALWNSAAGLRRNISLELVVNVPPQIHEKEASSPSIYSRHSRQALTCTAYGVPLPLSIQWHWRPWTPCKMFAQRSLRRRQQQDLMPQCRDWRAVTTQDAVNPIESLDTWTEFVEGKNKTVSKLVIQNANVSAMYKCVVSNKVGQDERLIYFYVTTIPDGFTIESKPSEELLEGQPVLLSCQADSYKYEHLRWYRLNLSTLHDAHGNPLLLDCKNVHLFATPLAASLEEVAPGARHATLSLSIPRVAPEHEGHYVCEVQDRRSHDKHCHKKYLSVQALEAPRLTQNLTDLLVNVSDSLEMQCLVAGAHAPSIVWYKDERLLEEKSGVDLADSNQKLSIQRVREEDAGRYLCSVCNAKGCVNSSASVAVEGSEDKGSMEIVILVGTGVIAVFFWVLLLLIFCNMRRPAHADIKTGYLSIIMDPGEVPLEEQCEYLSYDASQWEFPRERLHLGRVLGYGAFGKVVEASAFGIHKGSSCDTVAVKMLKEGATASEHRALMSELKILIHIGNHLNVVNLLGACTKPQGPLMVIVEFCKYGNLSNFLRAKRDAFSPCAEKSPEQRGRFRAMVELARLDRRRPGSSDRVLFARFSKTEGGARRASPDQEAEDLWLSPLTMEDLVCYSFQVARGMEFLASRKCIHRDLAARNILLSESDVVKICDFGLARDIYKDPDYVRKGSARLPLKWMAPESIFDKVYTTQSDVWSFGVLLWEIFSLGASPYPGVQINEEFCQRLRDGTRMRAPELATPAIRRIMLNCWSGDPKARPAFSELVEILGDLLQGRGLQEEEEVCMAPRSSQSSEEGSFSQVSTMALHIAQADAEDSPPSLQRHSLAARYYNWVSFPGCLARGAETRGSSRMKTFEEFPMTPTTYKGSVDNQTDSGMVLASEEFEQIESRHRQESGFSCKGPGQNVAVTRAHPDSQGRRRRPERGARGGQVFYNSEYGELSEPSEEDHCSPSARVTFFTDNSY

`COc1cc(/C=C/C(=O)CC(=O)/C=C/c2ccc(O)c(OC)c2)ccc1O` [1-D6, (1E,6E)-1,7-Bis(4-hydroxy-3-methoxyphenyl)-1,6-heptadiene-3,5-dione]: in test [1], the inhibition at 10 µM is greater than 50%.
Same read-out and setting: under `COc1cccc2c1cc([N+](=O)[O-])c1c(C(=O)O)cc3c(c12)OCO3` [1-F3, 8-methoxy-6-nitro phenanthro[3,4-d] [1, 3] dioxole-5-carboxylic acid] stands greater than 50%.
With `O=c1oc2cc(O)ccc2c2oc3cc(O)ccc3c12` [1-F4, 3,9-Dihydroxy-6-benzofurano [3,2-c]chromenone], 10 µM produced 59% inhibition in test [2].

As usually defined, the inhibition is the relative decrease from the control value, in per cent.
